Measurements: US20100286389A1, “STABLE CRYSTAL OF BETA-LACTAM COMPOUND” (priority 2007, published 2010)

Tests used:
[1] = test system: Gram positive bacteria, especially methicillin resistant staphylococcus and methicillin resistant coagulase negative staphylococcus; conditions: cited from earlier work
[2] = Stability test (Test 3), closed vial, HPLC area percentage of Compound A; type: physicochemical
Procedure: Stability test on each test sample was conducted under following storage conditions.
(§1) Column: SUMIPAX ODS-A212 (silica gel binding with octadecyl group, particle size 5 μm; 6.0 mm φ×15 cm), mobile phase A solution: a mixture of 0.005 mol/L phosphate buffer (pH7.0) and acetonitrile (300:23(v/v)), mobile phase B solution: acetonitrile, solvent for sample: water and acetonitrile (90:10(v/v)), wavelength: 220 nm, column temperature: constant temperature around 25° C., flow rate: 1.0 mL/min, injection amount: 10 μL, and gradient condition: […]

[3] = Stability test on Form I crystal under humidity condition (Test 4); type: physicochemical; conditions: usual handling condition
Text: Evaluation was based on change of area percentage of Compound A with HPLC (High Performance Liquid Chromatography) under following conditions:
as §1
In order to confirm the stability on Form I crystal under humidity condition was conducted following test. The test was carried out by using moisture-absorbed Form I crystal, which was prepared by storing Form I crystal obtained by the method of Example 2 under the atmosphere with 53% RH in a whole day in order to make it absorb moisture.

Compound: C[C@H]1C=C(c2csc(SC3=C(C(=O)O)N4C(=O)[C@H]([C@@H](C)O)[C@H]4[C@H]3C)n2)CN1 [Compound A, (4R,5S,6S)-6-[(1R)-1-hydroxyethyl]-4-methyl-3-({4-[(5S)-5-methyl-2,5-dihydro-1H-pyrrol-3-yl]-1,3-thiazol-2-yl}thio)-7-oxo-1-azabicyclo[3.2.0]hept-2-ene-2-carboxylic acid]
- Activity against Gram positive bacteria [1]: excellent activity

Compound: C[C@H]1C=C(c2csc(SC3=C(C(=O)O)N4C(=O)[C@H]([C@@H](C)O)[C@H]4[C@H]3C)n2)CN1 [Form I crystal, (4R,5S,6S)-6-[(1R)-1-hydroxyethyl]-4-methyl-3-({4-[(5S)-5-methyl-2,5-dihydro-1H-pyrrol-3-yl]-1,3-thiazol-2-yl}thio)-7-oxo-1-azabicyclo[3.2.0]hept-2-ene-2-carboxylic acid]
- Compound A (HPLC surface area %) ([2]; closed vial at 55° C., 2 weeks): 99.60%
- Difference from initial value (HPLC surface area %) ([2]; closed vial at 55° C., 2 weeks): −0.17%
- Compound A (HPLC surface area %) ([2]; closed vial at 55° C., 4 weeks): 99.60%
- Difference from initial value (HPLC surface area %) ([2]; closed vial at 55° C., 4 weeks): −0.17%
- Compound A (HPLC surface area %) ([2]; closed vial at 55° C., Initial): 99.77%
- Difference from initial value (HPLC surface area %) ([2]; closed vial at 55° C., Initial): 0%
- Stability in words ([2]; normal / usual storage condition, conclusion from the stability tests): extremely stable
- Moisture absorption in words [3]: absorbs a little moisture
- Stability in words [3]: excellent

Compound: C[C@H]1C=C(c2csc(SC3=C(C(=O)O)N4C(=O)[C@H]([C@@H](C)O)[C@H]4[C@H]3C)n2)CN1 [amorphous Compound A, (4R,5S,6S)-6-[(1R)-1-hydroxyethyl]-4-methyl-3-({4-[(5S)-5-methyl-2,5-dihydro-1H-pyrrol-3-yl]-1,3-thiazol-2-yl}thio)-7-oxo-1-azabicyclo[3.2.0]hept-2-ene-2-carboxylic acid]
- Compound A (HPLC surface area %) ([2]; closed vial at 50° C., 1 week): 73.40%
- Compound A (HPLC surface area %) ([2]; closed vial at 50° C., 3 weeks): 54.53%
- Compound A (HPLC surface area %) ([2]; closed vial at 50° C., 6 weeks): 39.93%
- Compound A (HPLC surface area %) ([2]; closed vial at 50° C., 8 weeks): 41.33%
- Compound A (HPLC surface area %) ([2]; closed vial at 50° C., 1 day): 91.68%
- Compound A (HPLC surface area %) ([2]; closed vial at 50° C., Initial): 97.95%
